From patent publication US12102633B2, “Spirolactone compounds” (Quixgen, Inc., priority 2017, dated 2024)
“Also recorded” adds a separate entry of the source. One block for each compound: values may come before it.

Tests used:
[1] = system: T1, Mouse ACC (ACC protein purified from liver); assay: Mouse ACC enzymatic activity assay; type: biochemical; conditions: read-out: EA-CoA mACC IC50
T1 construct: ACC protein was purified by taking advantage of the biotinylation in the carboxylase domain
Description: ACC protein was purified by taking advantage of the biotinylation in the carboxylase domain. Male C57BL/6J mice (Jackson Laboratory) at 8-12 weeks of age were euthanized by using CO2 inhalation method and liver was immediately frozen on dry ice. To 100 mg liver was added 1 mL ice-cold tissue lysis buffer (20 mM Tris-HCl pH 7.5, 150 mM NaCl, 1 mM Na2EDTA, 1 mM EGTA, 1% Triton, 2.5 mM sodium pyrophosphate, 1 mM 3-glycerophosphate, 1 mM Na3VO4, 1 μg/mL leupeptin, 1 tablet of protease inhibitor cocktail (Roche) per 10 mL lysis buffer) followed by homogenization on ice with Power Gen 125 homogenizer (Fisher Scientific). After 30 min incubation on ice, tissue lysate was passed through a 10 mL syringe with 18½ G needle for 10 times to shear DNA. The lysate was then subject to 17.5%-35% saturated ammonium sulfate precipitation by adding 880 mg ammonium sulfate powder (Sigma) to 10 mL liver lysate in 10 min with stirring on ice. Sample was centrifuged at 14,000 rpm (Eppendorf) at 4° C. for 10 min and supernatant was saved for further precipitation by adding 880 mg ammonium sulfate powder to 10 ml supernatant in 10 min with stirring on ice. Sample was centrifuged at 14,000 rpm at 4° C. for 10 min. Supernatant was discarded and pellet was dissolved in 10 mL sample buffer (100 mM Tris-HCl, pH 7.5, 1 mM EDTA, 0.1 mM DTT, 0.5 M NaCl, and 5% glycerol). The sample was then added with 1 mL of Strep Mag beads slurry (Genscript) and rotated at 4° C. for 1 hour. Supernatant was discarded and beads were washed with sample buffer for 3 times. Protein was then eluted by adding 10 mL of 2 mM biotin (Promega) prepared in sample buffer. The eluate was then dialyzed at 4° C. for 1 hour by using Slide-A-Lyzer™ Dialysis Cassettes 10K MWCO (Thermo Fisher Scientific) against 3 changes of 200 mL dialysis buffer (50 mM HEPES, pH 7.5, 0.1 mM DTT, 1.0 mM EDTA, and 10% glycerol). Total protein concentration was then quantitated by using BCA protein assay kit (Pierce).
For ACC enzymatic activity assay, 1 μL serial diluted compounds prepared in DMSO in duplicate were mixed with 8 μL dialyzed sample at 37° C. for 10 min. Ninety one L of reaction buffer (50 mM HEPES pH 7.5, 10 mM MgCl2, 2.0 mM DTT, 0.5 mM acetyl-CoA, 4.0 mM ATP, 15 mM ^13C-NaHCO3, 0.75 mg/mL BSA, 0.5 mM sodium citrate) was added to the tube and mixed thoroughly. After incubation at 37° C. for 1 hour, 300 μl ice-cold quenching buffer (acetonitrile:methanol=1:1, 20 μM carbutamide as internal standard) was added to each tube and mixed well to terminate the reaction. Samples were centrifuged at 14,000 rpm for 10 min (Eppendorf) and supernatant was loaded onto LC-MS/MS for quantitation of malonyl-^13C-CoA (Gao et al., Journal of chromatography B, Analytical technologies in the biomedical and life sciences 853, 303-313 (2007)).
(§1) Shimadzu LC system was used for sample analysis consisting of system controller (Shimadzu CBM-20A), autosampler (Shimadzu SIL-20A), pump A and B (Shimadzu LC-20AD), column oven (Shimadzu CTO-20A), and analytical column (Phenomenex Gemini 5u C18 11A, 100×2 mm). LC was running at 200 μL/min in the binary gradient mode with mobile phase A (5 mM Ammonium Acetate and 5 mM DMBA in water (1,3-Dimethylbutylamine)) and B (methanol). The samples were analyzed on an AB Sciex QTrap4000 LC-MS/MS triple quadrupole mass spectrometer (Applied Biosystems). Malonyl-CoA and malonyl-13C-CoA were monitored in positive ion mode following MRM transitions at 854.2/347.1 and 855.1/246.1, respectively. The product and internal standard were coeluted to the mass spectrometer in 3 s with 50% H2O, 25% MeCN, 25% acetone, and 5 mM ammonium acetate. Ion chromatograms were integrated using the Analyst 1.5.2 software. Peak area ratios were compared against a standard curve and final cellular concentration of malonyl-CoA or production rate of malonyl-13C-CoA was calculated as pmoles/mg protein per minute.

Human sebocytes [2] = assay: Cellular levels of malonyl-CoA in human sebocytes; type: cell-based; conditions: 0.5 h, 30 min incubation, read-out: Malonyl-CoA in Sebo IC50
Description: as §1
Human sebocytes (Celprogen) were grown in growth media (DMEM with 4.5 g/L glucose, 0.584 g/L L-glutamine (Sigma), 100 units/mL of penicillin and 100 μg/mL of streptomycin (Gibco), 10% fetal bovine serum (Gibco)) at 37° C. in a humidified water jacketed incubator (Forma Scientific) supplemented with 5% CO2 till 100% confluency. Cells grown in 152 cm^2 cell culture dish (Corning) were trypsinized with 0.25% trypsin-EDTA (Gibco), centrifuged at 800 rpm for 10 min (Eppendorf) and resuspended in 4 mL growth media. To 1 μL serial diluted compounds in DMSO, 99 μL cells (around 0.5 million cells suspended in growth media) were added and mixed well followed by incubation in cell culture incubator for 30 min. Cells were then centrifuged at 800 rpm for 10 min and 70 μL 10% trichloroacetic acid was added to each well to lyse the cells and precipitate proteins. Cellular levels of malonyl-CoA were quantitated by LC-MS/MS.

3T3-L1 adipocytes = assay: Lipogenesis of 3T3-L1 adipocytes; type: cell-based; conditions: Mus musculus, TG readout, read-out: LG-3T3 IC50
Description: 3T3-L1 fibroblast cells (Zen-Bio) were grown in 96-well culture microplate (Corning) with growth media to around 90-100% confluency. Culture media was changed to differentiation media (growth media supplemented with 3-Isobutyl-1-Methylxanthine 500 μM, Dexamethasone 1 μM, insulin 10 μg/mL, and rosiglitazone 2 μM) plus serially diluted compounds prepared in DMSO (1:1000 dilution). After incubation for 2 days, media was changed to maintenance media (growth media supplemented with insulin 10 μg/mL) plus serially diluted compounds prepared in DMSO (1:1000 dilution) for around 1 week with media changed every 2 days. Upon completion of the treatment, culture media are discarded and 200 μL 0.01% SDS was added to each well and shaken for 1 hour to lyse the cells. Cell lysates were then transferred to 400 μL Folch's solution (chloroform: methanol=2:1) and mixed well. After centrifuge at 2,000 rpm for 20 min, 200 μL of the lower organic phase was transferred to a plate with 10 μL sample buffer (chloroform:Triton-100=3:1). Samples were blown dried under nitrogen and 200 μL triglyceride (TG) quantification reagent (Thermo Fisher Scientific) was added, mixed, and incubated at 37° C. for 30 min. TG concentration was determined by reading absorbance at 535 nm (Dynex MRX^e Magellan Biosciences) and calculated from standard curve.

Human sebocytes [3] = assay: Lipogenesis of human sebocytes; type: cell-based; conditions: 96 hours, nile red, read-out: LG-Sebo IC50
Description: Human sebocytes (Celprogen) were grown in collagen-coated 96-well culture microplate (White/Clear bottom, Coming BioCoat) with growth media till 100% confluency. Culture media was changed to growth media plus 100 μM arachidonic acid (Sigma) and 10 μM rosiglitazone (Tocris) with compounds prepared in DMSO (1:1000 dilution in growth media). Cells were treated with compounds for 96 hours with media containing compounds changed after 48 hours. Upon completion of treatment, cells were washed with 200 μL Phosphate Buffered Saline (PBS) and then fixed by adding 100 μL 4% formaldehyde (Sigma) and incubated at room temperature for 1 hour. Cells were then washed 3 times with PBS. Microplate was stained with 100 μL nile red solution prepared in PBS (2 mg/mL, 1:400 dilution) by incubating at 37° C. for 1 hour and then washed 3 times with PBS. The fluorescence was read at Ex 492 nm and Em 595 nm (TECAN SpectrofluorPlus). Effect of compounds on lipogenesis in sebocytes was calculated by % of DMSO vehicle control.

Human sebocytes [4] = assay: Proliferation of human sebocytes; type: cell-based; conditions: 24 hours, MTT, read-out: AP-Sebo IC50
Description: Human sebocytes (Celprogen) and keratinocytes (ATCC) were grown in 96-well culture microplate (Coming) with growth media to around 50% confluency. Media was changed to growth media mixed with serially diluted compounds in DMSO (1:1000 dilution). After treatment for 24 hours, media was changed to 100 μL phenol red free DMEM and cell numbers were quantitated by using Vybrant® MTT Cell Proliferation Assay Kit (Molecular Probes). Ten μL of 12 mM MTT stock solution was added to each well and the microplate was incubated at 37° C. for 4 hours. Then 100 μL of the SDS-HCl solution was added to each well and mixed thoroughly using a pipette. The microplate was incubated at 37° C. for 4 hours in a cell culture incubator. The microplate was mixed again using a pipette and absorbance was read at 570 nm (Dynex MRX^e Magellan Biosciences). Effect of compounds on proliferation of human keratinocytes was calculated by % of DMSO vehicle control.

human ACC1 = biological target: T2, human ACC1 (Homo sapiens, UniProt Q13085); assay: Human ACC enzymatic activity assay (ACC1); type: biochemical; conditions: purified human ACC1; read-out: EA-CoA hACC 1 IC50
T2 construct: purchased BPS Bioscience
Description: (§2) Human ACC enzymatic activity assays were performed by using purified human ACC1 and ACC2 proteins (BPS Bioscience). ACC1 and ACC2 proteins were diluted in 24.5 μL reaction buffer (50 mM HEPES pH 7.5, 10 mM MgCl2, 2.0 mM DTT, 4.0 mM ATP, 15 mM ^13C-NaHCO3, 0.75 mg/mL BSA, 0.5 mM sodium citrate), and final concentrations of ACC1 and ACC2 were 0.4 μg/mL and 0.48 μg/mL. For each reaction, 0.5 μL of serial diluted compounds were prepared in DMSO in duplicate or triplicate and mixed with the above 24.5 μL reaction mixtures with ACC proteins at 37° C. for 10 min. Meanwhile, 25 μL of reaction buffer plus acetyl-CoA (final concentration: 5 μM) was prepared freshly and added to the above 25 μL mixture to initiate the reaction. After incubation at 37° C. for 1-2 hours, 100 μl ice-cold 10% TCA with malonyl-^13C3-CoA (final concentration: 40 nM, Sigma-Aldrich) was added to terminate the reaction. For LC-MS/MS analysis, 300 μL quenching buffer (acetonitrile:methanol=1:1, 20 μM carbutamide as internal standard) was added to each tube and mixed well. Samples were then centrifuged at 14,000 rpm for 10 min (Eppendorf) and supernatants were loaded onto LC-MS/MS for quantitation of […] (Gao et al., Journal of chromatography B, Analytical technologies in the biomedical and life sciences 853, 303-313 (2007)).
as §1

human ACC2 = biological target: T3, human ACC2 (Homo sapiens, UniProt O00763); assay: Human ACC enzymatic activity assay (ACC2); type: biochemical; conditions: purified human ACC2; read-out: EA-CoA hACC 2 IC50
T3 construct: purchased BPS Bioscience
T3 sequence (O00763 whole entry): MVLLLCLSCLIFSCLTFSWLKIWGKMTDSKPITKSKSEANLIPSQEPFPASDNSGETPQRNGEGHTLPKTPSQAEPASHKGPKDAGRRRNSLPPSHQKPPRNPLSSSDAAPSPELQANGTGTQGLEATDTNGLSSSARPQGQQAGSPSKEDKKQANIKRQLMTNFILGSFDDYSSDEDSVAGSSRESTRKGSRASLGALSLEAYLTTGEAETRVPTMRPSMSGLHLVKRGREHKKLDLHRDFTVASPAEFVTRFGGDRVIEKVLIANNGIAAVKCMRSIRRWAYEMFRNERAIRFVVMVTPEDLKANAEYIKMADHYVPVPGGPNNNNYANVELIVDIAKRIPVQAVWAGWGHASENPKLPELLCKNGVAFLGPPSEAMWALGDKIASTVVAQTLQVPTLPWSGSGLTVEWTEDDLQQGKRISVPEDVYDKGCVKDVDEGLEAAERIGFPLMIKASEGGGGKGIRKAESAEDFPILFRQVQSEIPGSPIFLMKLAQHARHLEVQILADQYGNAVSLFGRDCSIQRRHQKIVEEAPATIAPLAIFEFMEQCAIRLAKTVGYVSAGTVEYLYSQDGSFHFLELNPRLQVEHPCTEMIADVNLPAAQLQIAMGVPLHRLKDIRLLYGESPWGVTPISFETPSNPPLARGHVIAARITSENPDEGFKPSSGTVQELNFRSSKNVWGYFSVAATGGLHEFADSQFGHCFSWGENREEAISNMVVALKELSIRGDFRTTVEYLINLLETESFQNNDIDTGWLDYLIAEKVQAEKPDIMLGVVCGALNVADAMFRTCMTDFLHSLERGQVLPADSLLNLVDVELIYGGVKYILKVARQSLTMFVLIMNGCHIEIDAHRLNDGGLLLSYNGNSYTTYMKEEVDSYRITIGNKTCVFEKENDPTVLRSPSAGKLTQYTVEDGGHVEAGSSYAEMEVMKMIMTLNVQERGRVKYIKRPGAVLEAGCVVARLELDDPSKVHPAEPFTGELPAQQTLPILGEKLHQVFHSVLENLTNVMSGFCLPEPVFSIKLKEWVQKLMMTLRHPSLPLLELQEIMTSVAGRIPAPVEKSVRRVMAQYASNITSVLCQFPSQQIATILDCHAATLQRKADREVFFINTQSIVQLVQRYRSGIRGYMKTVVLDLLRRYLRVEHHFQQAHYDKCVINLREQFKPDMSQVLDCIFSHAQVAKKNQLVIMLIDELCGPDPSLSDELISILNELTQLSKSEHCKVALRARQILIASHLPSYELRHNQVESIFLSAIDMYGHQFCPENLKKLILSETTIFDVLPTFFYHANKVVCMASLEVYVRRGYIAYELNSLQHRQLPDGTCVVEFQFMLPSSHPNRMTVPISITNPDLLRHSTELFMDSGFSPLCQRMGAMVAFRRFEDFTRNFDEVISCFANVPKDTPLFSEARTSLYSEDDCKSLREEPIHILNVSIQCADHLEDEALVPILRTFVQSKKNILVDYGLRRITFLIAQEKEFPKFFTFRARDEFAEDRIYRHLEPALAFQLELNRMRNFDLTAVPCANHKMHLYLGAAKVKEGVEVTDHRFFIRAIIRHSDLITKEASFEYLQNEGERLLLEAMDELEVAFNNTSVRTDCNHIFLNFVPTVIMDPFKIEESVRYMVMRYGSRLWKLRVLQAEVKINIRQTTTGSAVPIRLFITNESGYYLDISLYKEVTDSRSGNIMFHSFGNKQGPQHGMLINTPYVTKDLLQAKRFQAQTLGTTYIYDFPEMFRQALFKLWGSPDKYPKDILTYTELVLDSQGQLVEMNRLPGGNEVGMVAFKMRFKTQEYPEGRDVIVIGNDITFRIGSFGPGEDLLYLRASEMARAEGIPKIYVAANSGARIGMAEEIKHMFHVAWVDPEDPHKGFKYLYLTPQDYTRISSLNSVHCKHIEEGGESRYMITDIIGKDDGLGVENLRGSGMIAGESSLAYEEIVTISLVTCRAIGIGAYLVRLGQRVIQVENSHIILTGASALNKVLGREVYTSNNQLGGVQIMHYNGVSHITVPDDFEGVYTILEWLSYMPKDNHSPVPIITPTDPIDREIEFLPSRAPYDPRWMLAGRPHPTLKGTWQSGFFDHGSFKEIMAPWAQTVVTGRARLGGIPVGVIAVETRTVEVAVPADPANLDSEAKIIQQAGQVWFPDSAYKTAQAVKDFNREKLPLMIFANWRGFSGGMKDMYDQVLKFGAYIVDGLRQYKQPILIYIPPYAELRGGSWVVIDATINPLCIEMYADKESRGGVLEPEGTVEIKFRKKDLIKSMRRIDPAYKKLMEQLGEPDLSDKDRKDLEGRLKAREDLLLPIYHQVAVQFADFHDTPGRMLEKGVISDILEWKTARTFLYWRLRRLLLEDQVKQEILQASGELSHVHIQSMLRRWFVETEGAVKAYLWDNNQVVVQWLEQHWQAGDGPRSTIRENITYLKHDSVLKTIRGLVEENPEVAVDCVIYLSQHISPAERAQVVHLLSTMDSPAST
Description: as §2, §1

[5] = system: liver triglycerides (TG) in C57BL/6J mice; assay: Chronic treatment for reducing liver triglycerides in C57BL/6J mice; type: in vivo, mouse; conditions: male C57BL/6J mice; 20 mg per kilogram body weight in 0.5% methylcellulose, oral gavage once per day for 2 weeks; FIG. 1, vs vehicle
Description: Male C57BL/6J mice (Jackson Laboratory) at around 9 weeks of age were treated with vehicle (0.5% methylcellulose or PEG400) or Example 14 (30 mg per kilogram body weight, dosing solution prepared in PEG400) and Example 20 (20 mg per kilogram body weight, dosing solution prepared in 0.5% methylcellulose) by oral gavage at ˜9:00 am, once per day for 2 weeks. Concentrations of Example 14 and Example 20 were 15 mg/ml and 2 mg/ml, respectively. The dosing volumes of Example 14 and Example 20 were 2 ml per kilogram body weight and 10 ml per kilogram body weight, respectively. After 14-day treatment, animals were euthanized in CO2 at 2 hours post dose and liver was frozen and kept on dry ice. Liver TG was measured by extracting lipids with chloroform:methanol 2:1 (v/v) followed by quantitation with Infinity™ Triglycerides Reagent (Thermo Scientific).

[6] = in vivo; cited from earlier work
[7] = in vivo; cited from earlier work; remark: listed apart in the source

Compound: COc1cc(C(=O)N2CCC3(CC2)Cc2ccc(C(C)C)cc2C(=O)O3)cc2c(OC)cccc12 [Example 1, 1′-(4,8-dimethoxy-2-naphthoyl)-7-isopropylspiro[isochroman-3,4′-piperidin]-1-one]
IC50 [1]: 3.7 nM | IC50 (Human sebocytes [2]): 41.5 nM | IC50 (3T3-L1 adipocytes): 1.3 nM | IC50 (Human sebocytes [3]): 10 nM | IC50 (Human sebocytes [4]): 93.3 nM

IC50 (human ACC1): 148 nM | IC50 (human ACC2): 152 nM
Compound: COc1cc(C(=O)N2CCC3(CC2)Cc2ccc(-c4cncc(C(=O)O)c4)cc2C(=O)O3)nc2c(C3CC3)cccc12 [Example 20, 5-(1′-(8-cyclopropyl-4-methoxyquinoline-2-carbonyl)-1-oxospiro[isochroman-3,4′-piperidin]-7-yl)nicotinic acid]
Liver TG [5]: reduced liver triglycerides; also recorded: reduced liver TG

Compound: CCCCCCCCCCCCCCOc1ccc(C(=O)OCC(=O)N(C)CC(=O)OCC)o1 [olumacostat glasaretil]
Phase II data [6]: positive | Primary endpoints in phase III study [7]: did not meet its primary endpoints
